Results from patent US10869879B2, “Combinations to treat cancer” (EVOL SCIENCE LLC, priority 2017, dated 2020).

Legend:
SK-MEL-28 cells [1] = experiment: Colony formation assay; assay type: cell-based; conditions: Homo sapiens, parental cell line, FIG. 4B, read-out: IC50 of vemurafenib, colony formation
Experimental: (§1) For colony formation assays, 400 cells per well were seeded into 24-well plates on day 0. Cells were treated with DMSO or gemcitabine at various doses on day 1 for 24 hours. Gemcitabine was washed out on day 2, vemurafenib, dabrafenib, and methotrexate was added. On day 4, drugs added on day 2 was washed out. Cells were allowed to grow for a subsequent 7 days before being fixed (10% methanol+10% acetic acid) and stained with crystal violet (0.4% in 20% ethanol) for quantitation as previously described.
All proteomic trend plots were constructed using the Evol Science suite (ES). Volcano plotting serves to visually separate data points in two axes by both their expression ratio and their statistical significance. This enables a simple method of determining the most significant, differentially expressed proteins within a given comparison. For each protein, replicate values are gathered from each experiment to be compared to create two distributions of values. Student's T-Test of identical mean is used between the two independent samples of values to compare the distributions and generate a p-value of statistical significance. The −log 10 of the p-value is then taken to provide the Y coordinate, in graphical view. The X coordinate, Ratio, is given by the log 10 of the average of replicate ratio values for a given experiment. […]

SK-MEL-28VR1 cells [2] = experiment: Colony formation assay; assay type: cell-based, human; conditions: for cell death with serine depletion: glucose, and glycine depleted media, not with complete media
Experimental: as §1
(§2) All proteomic trend plots were constructed using the Evol Science suite (ES). Volcano plotting serves to visually separate data points in two axes by both their expression ratio and their statistical significance. This enables a simple method of determining the most significant, differentially expressed proteins within a given comparison. For each protein, replicate values are gathered from each experiment to be compared to create two distributions of values. Student's T-Test of identical mean is used between the two independent samples of values to compare the distributions and generate a p-value of statistical significance. The −log 10 of the p-value is then taken to provide the Y coordinate, in graphical view. The X coordinate, Ratio, is given by the log 10 of the average of replicate ratio values for a given experiment. Combination Index calculations, Fa-CI plots, and isobolograms were constructed using the Compusyn software program using the Chou-Tulalay method. All plots representing colony formation assays were constructed using the Prism7 software (Graphpad.com). Two-way Anova tests were used to calculate p values.

BxPC3M1 cells = experiment: Colony formation assay; assay type: cell-based, human; conditions: vemurafenib 5 μM, glucose, and glycine depleted media, not with complete media
Experimental: as §1, §2

[3] = system: SK-MEL-28VR1 vs SK-MEL-28 cells; conditions: vemurafenib treatment, SK-MEL-28VR1 compared to parental SK-MEL-28
[4] = system: pancreatic cancer cells (BxPC3M1, BxPC3, Panc1, MiaPaca2); assay type: cell-based; conditions: vemurafenib 10 μM versus DMSO, all 4 cell lines, n=3
[5] = system: BxPC3M1, BxPC3, Panc1, and MiaPaca2; experiment: Cell proliferation assay; assay type: cell-based; conditions: vemurafenib 10 μM, all 4 cell lines (WT BRAF)
Experimental: FIG. 9A, FIG. 9B, FIG. 9C, FIG. 9D, FIG. 9E, FIG. 9F, FIG. 9G and FIG. 9H illustrate vemurafenib induced cell proliferation and serine synthesis in pancreatic cancer cell lines. FIG. 9A: Cell proliferation assay of BxPC3 cells treated with vemurafenib (10 μM). 100000 cells plated on day 0. FIG. 9B: Cell proliferation assay of BxPC3M1 cells treated with vemurafenib (10 μM). 100000 cells plated on day 0. FIG. 9C: Cell proliferation assay of Panc1 cells treated with vemurafenib (10 μM). 100000 cells plated on day 0. FIG. 9D: Cell proliferation assay of MiaPaca2 cells treated with vemurafenib (10 μM). 100000 cells plated on day 0. FIG. 9E: Mass spectrometry: PHGDH protein expression in pancreatic cancer cells treated with DMSO or vemurafenib (10 μM) (n=3). FIG. 9F: Mass spectrometry: PSAT1 protein expression in pancreatic cancer cells treated with DMSO or vemurafenib (10 μM) (n=3). FIG. 9G: Mass spectrometry: PSPH protein expression in pancreatic cancer cells treated with DMSO or vemurafenib (10 μM) (n=3). FIG. 9H: Mass spectrometry: SARS protein expression in pancreatic cancer cells treated with DMSO or vemurafenib (10 μM) (n=3).
Next, we tested the effect of vemurafenib treatment on pancreatic cancer cell proliferation. All 4 of the cell lines (BxPC3M1, BxPC3, Panc1, and MiaPaca2) tested express WT BRAF. […]

SK-MEL-28 cells [6] = experiment: Mass spectrometry, FAM129B protein abundance; assay type: cell-based; conditions: parental SK-MEL-28 cells
Experimental: (§3) FIG. 5A and FIG. 5B illustrate a characterization of SK-MEL-28VR1 cells. FIG. 5A: Unbiased Mass spectrometry: FAM129B protein abundance following differential treatments of SK-MEL-28 and SK-MEL-28VR1 cells (n=3). FIG. 5B: illustrates a characterization of SK-MEL-28VR1 cells. Western blot of PHGDH protein expression in differentially treated SK-MEL-28 and SK-MEL-28VR1 cells. Alpha tubulin used as loading control. 50 μg of protein loaded in each lane.
(§4) Samples were dried down and re-dissolved in 2.5% ACN/0.1% formic acid for liquid chromatography-tandem mass spectrometry (LC-MS/MS) analysis carried out on a Q-Exactive HF (Thermo Fisher Scientific) coupled with a U3000 RSLCnano HPLC device (Thermo Fisher Scientific). 5 μL of sample were loaded onto a C18 trap column (PepMap100; 300-μm i.d.×5 mm, 5-μm particle size, 100 Å; Thermo Fisher Scientific) at a flow rate of 10 μL min^−1. […] The runs were analyzed using Progenesis-QI for Proteomics (Nonlinear dynamics). […] The peptide and protein quantification used a synthetic control peptide for normalization across the samples. […]

SK-MEL-28VR1 cells [7] = experiment: Mass spectrometry, FAM129B protein abundance; assay type: cell-based, human; conditions: FIG. 5A, n=3
Experimental: as §3, §4

CCCS(=O)(=O)Nc1ccc(F)c(C(=O)c2c[nH]c3ncc(-c4ccc(Cl)cc4)cc23)c1F [vemurafenib, Vemurafenib]
IC50 (SK-MEL-28 cells [1]): ~1 µM | IC50 (SK-MEL-28VR1 cells [2]; Homo sapiens, data not shown, read-out: IC50 of vemurafenib, colony formation): ~30 µM | cell death with serine depletion (SK-MEL-28VR1 cells [2]; vemurafenib 2.5 μM): > 50% | cell death with serine depletion (SK-MEL-28VR1 cells [2]; vemurafenib 5 μM): > 50% | cell death with serine depleted media (BxPC3M1 cells): > 50% | Fold differential, ASNS ([3]; protein ASNS): 8 fold | Fold differential, CYP51A1 ([3]; protein CYP51A1): 8 fold | Fold differential, DUS2 ([3]; protein DUS2): 7 fold | Fold differential, FAM129B ([3]; protein FAM129B): 9 fold | Fold differential, KRT19 ([3]; protein KRT19): 5 fold | Fold differential, LARS2 ([3]; protein LARS2): 6 fold | Fold differential, MPHOSPH6 ([3]; protein MPHOSPH6): 9 fold | Fold differential, MRPL13 ([3]; protein MRPL13): 2 fold | Fold differential, PDLIM7 ([3]; protein PDLIM7): 9 fold | Fold differential, PHGDH ([3]; protein PHGDH): 2 fold | Fold differential, PPP1R7 ([3]; protein PPP1R7): 8 fold | Fold differential, PSAT1 ([3]; protein PSAT1): 8 fold | Fold differential, PSPH ([3]; protein PSPH): 5 fold | Fold differential, RUVBL1 ([3]; protein RUVBL1): 3 fold | Fold differential, S100A11 ([3]; protein S100A11): 8 fold | Fold differential, SARS2 ([3]; protein SARS2): 4 fold | Fold differential, SARS ([3]; protein SARS): 6 fold | Fold differential, SBDS ([3]; protein SBDS): 10 fold | Fold differential, SPATA20 ([3]; protein SPATA20): 12 fold | Fold differential, TXNDC17 ([3]; protein TXNDC17): 2 fold | PHGDH, PSAT1, PSPH, and SARS protein abundance [4]: increased | cell proliferation under vemurafenib treatment [5]: increased proliferation | FAM129B abundance in response to vemurafenib treatments (SK-MEL-28 cells [6]): decreased | Cytoplasmic FAM129B abundance increase, vemurafenib compared to vehicle treatment (SK-MEL-28VR1 cells [7]): ~6 fold
